Assay results reported in ChEMBL document CHEMBL1125891, “Synthesis, molecular modeling studies, and muscarinic receptor activity of azaprophen analogues” (J Med Chem, 1991).
“And” between values parts separate entries of the source, which are not always exact repeats. Equal values may be shown once.

What was measured:
[1] = biological target: Muscarinic acetylcholine receptor
Description: Inhibition of [3H]QNB binding against muscarinic acetylcholine receptor in rat brain.

[2] = biological target: Muscarinic acetylcholine receptor; test: Inhibition of [3H]pirenzepine binding against muscarinic acetylcholine receptor in rat brain.; type: tissue-based
[3] = biological target: T1, Muscarinic acetylcholine receptor M3 (Rattus norvegicus, UniProt P08483); test: Binding activity against rat muscarinic acetylcholine receptor M3 using [3H]QNB as the radioligand
[4] = biological target: T2, Muscarinic acetylcholine receptor M1 (Rattus norvegicus, UniProt P08482); test: Binding activity against rat muscarinic acetylcholine receptor M1 using [3H]QNB as the radioligand
T2 sequence (P08482 whole entry): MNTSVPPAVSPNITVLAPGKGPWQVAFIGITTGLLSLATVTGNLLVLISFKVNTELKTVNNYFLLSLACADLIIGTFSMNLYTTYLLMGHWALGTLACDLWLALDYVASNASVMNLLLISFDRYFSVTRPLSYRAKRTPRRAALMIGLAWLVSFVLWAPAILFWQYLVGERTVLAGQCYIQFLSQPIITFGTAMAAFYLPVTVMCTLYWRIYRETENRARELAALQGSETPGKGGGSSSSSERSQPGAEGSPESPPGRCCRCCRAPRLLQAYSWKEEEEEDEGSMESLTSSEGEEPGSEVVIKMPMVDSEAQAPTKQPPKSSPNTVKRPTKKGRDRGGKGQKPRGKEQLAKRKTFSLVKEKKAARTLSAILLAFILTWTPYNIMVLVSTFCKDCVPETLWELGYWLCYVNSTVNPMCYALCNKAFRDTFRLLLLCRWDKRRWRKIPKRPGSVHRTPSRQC

Cavia porcellus [5] = species: Cavia porcellus; test: Inhibition against methacholine induced phasic contraction in guinea pig ileum; type: functional; conditions: read-out: pA2 (converted)
[6] = biological target: Muscarinic acetylcholine receptor; test: Inhibition of [3H]QNB binding against muscarinic acetylcholine receptor in guinea pig ileum; type: tissue-based, Cavia porcellus
[7] = biological target: Muscarinic acetylcholine receptor; test: Inhibition of [3H]QNB binding against muscarinic acetylcholine receptor in rat heart.
Cavia porcellus [8] = species: Cavia porcellus; test: The compound was tested for inhibition against methacholine induced tonic contraction in guinea pig ileum; type: functional; conditions: read-out: pA2 (converted)
Cavia porcellus [9] = species: Cavia porcellus; test: Inhibition of methacholine induced tonic contraction of guinea pig ileum; type: functional
[10] = biological target: Muscarinic acetylcholine receptor; test: Inhibition of methacholine induced phasic contraction of guinea pig ileum; type: functional, tissue-based, Cavia porcellus
Cavia porcellus [11] = species: Cavia porcellus; test: The compound was tested for inhibition against tonic contraction in guinea pig ileum.; type: functional; conditions: read-out: pA2 (converted)
Cavia porcellus [12] = species: Cavia porcellus; test: The compound was tested for inhibition against methacholine induced tonic contraction in guinea pig ileum.; type: functional; conditions: read-out: pA2 (converted)
[13] = biological target: Muscarinic acetylcholine receptor; remark: listed apart in the source
Description: Inhibition of [3H]OXO-M binding against muscarinic acetylcholine receptor in rat brain membranes

[14] = biological target: Muscarinic acetylcholine receptor; test: The compound was tested for inhibition of [3H]OXO-M binding against muscarinic acetylcholine receptor in rat brain membranes; type: cell membranes
[15] = biological target: T1, Muscarinic acetylcholine receptor M3; test: The compound was tested for binding activity against muscarinic acetylcholine receptor M3, using [3H]-QNB as the radioligand.
[16] = biological target: T2, Muscarinic acetylcholine receptor M1; test: The compound was tested for binding activity against muscarinic acetylcholine receptor M1, using [3H]QNB as the radioligand.

T1 sequence (P08483 whole entry): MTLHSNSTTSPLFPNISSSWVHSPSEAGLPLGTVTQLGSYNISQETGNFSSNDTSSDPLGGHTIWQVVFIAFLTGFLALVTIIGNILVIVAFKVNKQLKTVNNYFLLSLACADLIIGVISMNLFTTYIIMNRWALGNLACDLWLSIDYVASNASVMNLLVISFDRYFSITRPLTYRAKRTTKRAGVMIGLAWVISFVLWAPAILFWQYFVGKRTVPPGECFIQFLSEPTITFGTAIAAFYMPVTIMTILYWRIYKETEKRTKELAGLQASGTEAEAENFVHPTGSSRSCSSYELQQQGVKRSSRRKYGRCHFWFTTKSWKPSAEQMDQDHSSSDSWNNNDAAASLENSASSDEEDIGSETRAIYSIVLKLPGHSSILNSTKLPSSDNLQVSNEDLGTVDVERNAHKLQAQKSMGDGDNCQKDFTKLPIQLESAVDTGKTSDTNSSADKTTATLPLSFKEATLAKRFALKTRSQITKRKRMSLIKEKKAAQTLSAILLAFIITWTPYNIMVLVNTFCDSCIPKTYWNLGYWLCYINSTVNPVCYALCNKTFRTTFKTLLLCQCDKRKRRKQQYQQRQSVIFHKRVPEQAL

Structure (SMILES): CN1CC2CC1C[C@H](OC(=O)C(C)(c1ccccc1)c1ccccc1)C2 (some centres not stated)
- Ki [1]: 4.2 nM
- Ki [2]: 12.7 nM
- Ki [3]: 9.28 nM
- Ki [4]: 2.94 nM
- Kb (Cavia porcellus [5]): 1.86 nM
- Ki [6]: 9.64 nM
- Ki [7]: 12.9 nM
- Kb (Cavia porcellus [8]): 1.91 nM
- -Log Kd (Cavia porcellus [9]): 8.75
- -Log Kd [10]: 8.44

Structure (SMILES): CN1CC2CC1C[C@H](OC(=O)C(c1ccccc1)c1ccccc1)C2 (some centres not stated)
- Ki [1]: 4.07 nM
- Ki [2]: 5.73 nM
- Ki [3]: 11.2 nM
- Ki [4]: 4.75 nM
- Kb (Cavia porcellus [5]): 1.55 nM
- Ki [6]: 19.1 nM
- Ki [7]: 16.9 nM
- Kb (Cavia porcellus [8]): 1.82 nM
- -Log Kd [10]: 8.27 and 8.32

Structure (SMILES): CC(C(=O)O[C@H]1CC2CC(C1)N(Cc1ccccc1)C2)(c1ccccc1)c1ccccc1 (some centres not stated)
- Ki [1]: 9.53 nM
- Ki [2]: 27.9 nM
- Ki [3]: 12.5 nM
- Ki [4]: 10.9 nM
- Kb (Cavia porcellus [11]): 5.62 nM
- Kb (Cavia porcellus [5]): 6.17 nM
- Ki [6]: 12.8 nM
- Ki [7]: 9.28 nM
- Kb (Cavia porcellus [12]): 5.62 nM
- -Log Kd (Cavia porcellus [9]): 8.03
- -Log Kd [10]: 8.04

Structure (SMILES): CC(=O)O[C@H]1CC2CC(C1)N(C(C)c1ccccc1)C2 (some centres not stated)
- Ki [1]: 3530 nM
- Ki [3]: 3380 nM
- Ki [4]: 2770 nM
- Ki [6]: 4570 nM
- Ki [13]: 113 nM

Structure (SMILES): CN1CC2CC1C[C@@H](OC(=O)C(c1ccccc1)c1ccccc1)C2 (some centres not stated)
- Ki [1]: 1.89 nM
- Ki [2]: 2.87 nM
- Ki [3]: 4.3 nM
- Ki [4]: 1.23 nM
- Kb (Cavia porcellus [5]): 1.74 nM
- Ki [6]: 8.21 nM
- Ki [7]: 5.49 nM
- Kb (Cavia porcellus [8]): 1.86 nM
- -Log Kd [10]: 8.45

Structure (SMILES): CC(=O)O[C@H]1CC2CC(C1)N([C@H](C)c1ccccc1)C2 (some centres not stated)
- Ki [1]: 10100 nM
- Ki [3]: 14900 nM
- Ki [4]: 12800 nM
- Ki [6]: 7700 nM
- Ki [13]: 1950 nM

Structure (SMILES): CC(=O)O[C@H]1CC2CC(C1)N(C)C2 (single isomer, unassigned; (+))
- Ki [1]: 8560 nM
- Ki [3]: 19700 nM
- Ki [4]: 13900 nM
- Ki [6]: 21000 nM
- Ki [14]: 2170 nM

Structure (SMILES): CN1CC2CC1C[C@@H](OC(=O)C(C)(c1ccccc1)c1ccccc1)C2 (single isomer, unassigned; (+))
- Ki [1]: 0.0297 nM
- Ki [15]: 0.0986 nM
- Ki [16]: 0.0383 nM
- Ki [6]: 0.054 nM

Structure (SMILES): CC(=O)O[C@@H]1CC2CC(C1)N(C)C2 (single isomer, unassigned; (+))
- Ki [1]: 6470 nM
- Ki [3]: 11300 nM
- Ki [4]: 7110 nM
- Ki [6]: 10400 nM
- Ki [13]: 10400 nM

Structure (SMILES): CC(=O)O[C@H]1CC2CC(C1)N(C)C2 (single isomer, unassigned; (-))
- Ki [1]: 3730 nM
- Ki [3]: 4970 nM
- Ki [4]: 7210 nM
- Ki [6]: 4190 nM
- Ki [13]: 6550 nM

Structure (SMILES): CN1CC2CC1C[C@@H](OC(=O)C(C)(c1ccccc1)c1ccccc1)C2 (single isomer, unassigned; (-))
- Ki [1]: 6.36 nM
- Ki [3]: 10.7 nM
- Ki [4]: 7.89 nM
- Ki [6]: 14.5 nM

Structure (SMILES): CC(=O)O[C@@H]1CC2CC(C1)N(C)C2 (single isomer, unassigned; (-))
- Ki [1]: 23000 nM
- Ki [3]: 46700 nM
- Ki [4]: 22100 nM
- Ki [6]: 38100 nM
- Ki [13]: 33900 nM

Structure (SMILES): CN1CC2CC1C[C@@H](OC(=O)C(C)(c1ccccc1)c1ccccc1)C2 (stereo in doubt; 1)
- Ki [1]: 0.13 nM
- Ki [2]: 0.118 nM
- Ki [3]: 0.472 nM
- Ki [4]: 0.0881 nM
- Kb (Cavia porcellus [5]): 0.0741 nM
- Ki [6]: 0.279 nM
- Ki [7]: 0.196 nM
- -Log Kd [10]: 10.46

Structure (SMILES): CC(=O)O[C@H]1CC2CC(C1)N(C)C2 (stereo in doubt; 8)
- Ki [1]: 7530 nM
- Ki [2]: 9810 nM
- Ki [3]: 8990 nM
- Ki [4]: 9200 nM
- Ki [6]: 8400 nM
- Ki [13]: 1150 nM

Structure (SMILES): CC(=O)O[C@@H]1CC2CC(C1)N(C)C2 (stereo in doubt; 9)
- Ki [1]: 8550 nM
- Ki [2]: 12500 nM
- Ki [3]: 14100 nM
- Ki [4]: 8620 nM
- Ki [6]: 11900 nM
- Ki [13]: 7820 nM

Structure (SMILES): CC(=O)O[C@@H]1C[C@@H]2C[C@H](C1)N([C@H](C)c1ccccc1)C2 (stereo in doubt; 12)
- Ki [1]: 19100 nM
- Ki [3]: 29900 nM
- Ki [4]: 23100 nM
- Ki [6]: 12900 nM
- Ki [13]: 23300 nM

Structure (SMILES): CC(=O)O[C@@H]1C[C@@H]2C[C@H](C1)N([C@H](C)c1ccccc1)C2 (stereo in doubt; 13)
- Ki [1]: 4710 nM
- Ki [3]: 4280 nM
- Ki [4]: 9180 nM
- Ki [6]: 3750 nM
- Ki [13]: 4150 nM
